Assays:
Type in all cases: cell-based
[1] = target: T1, BRAF V600E (Homo sapiens, UniProt P15056, V600E); experiment: BRAF HiBiT degradation assay, C-terminal HiBiT-tagged BRAF V600E A375 cells (clone 1F10), Nano-Glo HiBiT Lytic assay; conditions: for Dmax: A-375
T1 construct: endogenous C-terminal HiBiT fusion tag on BRAF V600E allele; endogenous in cells; host or cells: A375 clone 1F10 (CRISPR-Cas9 knock-in of the HiBiT tag; parental A375 from ATCC)
In short: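 A375 cells with CRISPR knock-in C-terminal HiBiT on endogenous BRAF V600E (clone 1F10) were seeded and cultured 24 h at 37 °C, then dosed with an 11-point half-log series (1 μM to 0.01 nM, duplicate, 0.2% DMSO). Lytic HiBiT luminescence gave % protein remaining; DC50 was the fitted concentration at 50%.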

[2] = target: T2, BRAF G466V (Homo sapiens, UniProt P15056, G466V); experiment: BRAF HiBiT degradation assay, C-terminal HiBiT-tagged BRAF G466V overexpressed in HCT-116 BRAF−/− cells (clone 8), Nano-Glo HiBiT Lytic assay
T2 construct: Horizon Discovery (HCT-116 BRAF−/− cells); host or cells: HCT-116 BRAF−/− cells, clone 8, lentiviral transduction
In short: (§1)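 HCT-116 BRAF−/− cells stably expressing the tagged mutant were seeded at 3,000 cells/well and grown 24 h at 37 °C before an 11-point half-log series from 1 μM to 0.01 nM, run in duplicate at 0.2% DMSO. Lytic HiBiT luminescence gave % protein remaining versus DMSO controls; DC50 was the fitted concentration at 50%.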

[3] = target: T3, BRAF G469A (Homo sapiens, UniProt P15056, G469A); experiment: BRAF HiBiT degradation assay, C-terminal HiBiT-tagged BRAF G469A overexpressed in HCT-116 BRAF−/− cells (clone 34), Nano-Glo HiBiT Lytic assay
T3 construct: Horizon Discovery (HCT-116 BRAF−/− cells); host or cells: HCT-116 BRAF−/− cells, clone 34, lentiviral transduction
In short: as §1

[4] = target: T4, BRAF D594G (Homo sapiens, UniProt P15056, D594G); experiment: BRAF HiBiT degradation assay, C-terminal HiBiT-tagged BRAF D594G overexpressed in HCT-116 BRAF−/− cells (clone 63), Nano-Glo HiBiT Lytic assay
T4 construct: Horizon Discovery (HCT-116 BRAF−/− cells); host or cells: HCT-116 BRAF−/− cells, clone 63, lentiviral transduction
In short: as §1

[5] = A375 (BRAF V600E), DC50 at 50%: fitted conc. at Y=50
[6] = A375 (BRAF V600E), percentage protein degraded at maximal compound effect relative to DMSO
[7] = BRAF G466V, DC50 at 50%: fitted conc. at Y=50
[8] = HCT-116, BRAF G466V, percentage protein degraded at maximal compound effect relative to DMSO
[9] = Class 2, BRAF G469A, DC50 at 50%: fitted conc. at Y=50
[10] = HCT-116, Class 2, BRAF G469A, percentage protein degraded at maximal compound effect relative to DMSO
[11] = BRAF D594G, DC50 at 50%: fitted conc. at Y=50
[12] = HCT-116, BRAF D594G, percentage protein degraded at maximal compound effect relative to DMSO

T4 sequence (P15056 whole entry D594G): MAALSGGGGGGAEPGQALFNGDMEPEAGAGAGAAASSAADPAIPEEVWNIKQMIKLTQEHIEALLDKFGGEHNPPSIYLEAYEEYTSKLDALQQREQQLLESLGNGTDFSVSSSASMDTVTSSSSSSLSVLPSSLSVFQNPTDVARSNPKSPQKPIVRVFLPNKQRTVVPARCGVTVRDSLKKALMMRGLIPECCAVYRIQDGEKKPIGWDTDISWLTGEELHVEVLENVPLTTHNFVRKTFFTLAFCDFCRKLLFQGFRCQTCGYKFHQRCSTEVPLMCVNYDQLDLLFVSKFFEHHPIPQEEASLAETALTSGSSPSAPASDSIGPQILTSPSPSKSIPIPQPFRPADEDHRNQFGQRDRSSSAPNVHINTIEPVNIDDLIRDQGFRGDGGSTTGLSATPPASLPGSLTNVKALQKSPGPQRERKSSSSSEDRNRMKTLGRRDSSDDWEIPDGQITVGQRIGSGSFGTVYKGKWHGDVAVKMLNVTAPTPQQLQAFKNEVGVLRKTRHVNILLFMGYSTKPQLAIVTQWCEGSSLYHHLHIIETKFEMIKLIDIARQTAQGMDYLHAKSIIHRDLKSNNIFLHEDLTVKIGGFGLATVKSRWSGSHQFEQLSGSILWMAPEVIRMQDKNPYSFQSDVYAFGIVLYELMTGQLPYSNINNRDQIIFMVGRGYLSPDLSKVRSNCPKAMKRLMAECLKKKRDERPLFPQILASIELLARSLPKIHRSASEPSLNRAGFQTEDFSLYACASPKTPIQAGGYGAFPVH
T2 sequence (P15056 whole entry G466V): as the sequence (P15056 whole entry D594G) above, with G466V, G594D counted along it
T3 sequence (P15056 whole entry G469A): as the sequence (P15056 whole entry D594G) above, with G469A, G594D counted along it
T1 sequence (P15056 whole entry V600E, the tested form may be a part): as the sequence (P15056 whole entry D594G) above, with G594D, V600E counted along it

| SMILES | DC50 [1, 5] [nM] | Dmax [1, 6] [%] | DC50 [2, 7] [nM] | Dmax [2, 8] [%] | DC50 [3, 9] [nM] | Dmax [3, 10] [%] | DC50 [4, 11] [nM] | Dmax [4, 12] [%] | DC50 ([1]; A375 (BRAF V600E, Class 1), DC50 at 50% degradation) [nM] | Dmax ([1]; A375 (BRAF V600E, Class 1), observed Dmax, % protein degraded relative to DMSO control) [%] | DC50 ([2]; BRAF G466V (Class 3), HCT-116 BRAF−/− cells, DC50 at 50% degradation) [nM] | Dmax ([2]; BRAF G466V (Class 3), HCT-116 BRAF−/− cells, observed Dmax relative to DMSO control) [%] | DC50 ([3]; BRAF G469A (Class 2), HCT-116 BRAF−/− cells, DC50 at 50% degradation) [nM] | Dmax ([3]; BRAF G469A (Class 2), HCT-116 BRAF−/− cells, observed Dmax relative to DMSO control) [%] | DC50 ([4]; BRAF D594G (Class 3), HCT-116 BRAF−/− cells, DC50 at 50% degradation) [nM] | Dmax ([4]; BRAF D594G (Class 3), HCT-116 BRAF−/− cells, observed Dmax relative to DMSO control) [%] |
| --- | --- | --- | --- | --- | --- | --- | --- | --- | --- | --- | --- | --- | --- | --- | --- | --- |
| CCCS(=O)(=O)Nc1cccc(-c2nc(C3CCN(CC4CCN(C(=O)[C@H]5CC[C@H](Oc6ccc(C7CCC(=O)NC7=O)cc6)CC5)CC4)CC3)sc2-c2ccnc(N)n2)c1F (mixture of isomers) [Compound 224, N-{3-[5-(2-aminopyrimidin-4-yl)-2-[1-({1-[(1r,4r)-4-{4-[(3RS)-2,6-dioxopiperidin-3-yl]phenoxy}cyclohexanecarbonyl]piperidin-4-yl}methyl)piperidin-4-yl]-1,3-thiazol-4-yl]-2-fluorophenyl}propane-1-sulfonamide] | < 10 | > 70 | > 500 | 30 to 70 | > 500 | < 30 | > 500 | 30 to 70 | – | – | – | – | – | – | – | – |
| CCCS(=O)(=O)Nc1cccc(-c2nc(C)sc2-c2ccnc(Nc3ccc(N4CCN(CC5CCN(c6ccc([C@@H]7CCC(=O)NC7=O)cc6)CC5)CC4)cn3)n2)c1F [Compound 61, N-[3-(5-{2-[(5-{4-[(1-{4-[(3S)-2,6-dioxopiperidin-3-yl]phenyl}piperidin-4-yl)methyl]piperazin-1-yl}pyridin-2-yl)amino]pyrimidin-4-yl}-2-methyl-1,3-thiazol-4-yl)-2-fluorophenyl]propane-1-sulfonamide] | < 10 | > 70 | > 500 | 30 to 70 | < 10 | 30 to 70 | > 500 | 30 to 70 | – | – | – | – | – | – | – | – |
| CCCS(=O)(=O)Nc1cccc(-c2nc(C(C)(C)C)sc2-c2ccnc(Nc3cnn(CC4CCN(C(=O)C[C@H]5CCN(c6ccc(C7CCC(=O)NC7=O)cc6)C5)CC4)c3)n2)c1F (mixture of isomers) [Compound 111, N-(3-{2-tert-butyl-5-[2-({1-[(1-{2-[(3R)-1-{4-[(3RS)-2,6-dioxopiperidin-3-yl]phenyl}pyrrolidin-3-yl]acetyl}piperidin-4-yl)methyl]-1H-pyrazol-4-yl}amino)pyrimidin-4-yl]-1,3-thiazol-4-yl}-2-fluorophenyl)propane-1-sulfonamide] | < 10 | 30 to 70 | 50 to 500 | < 30 | 50 to 500 | < 30 | 50 to 500 | 30 to 70 | – | – | – | – | – | – | – | – |
| CCCS(=O)(=O)Nc1cccc(-c2nc(C(C)(C)C)sc2-c2ccnc(NC3CC4(CCN(CC5CCN(c6ccc7c(=O)n(C8CCC(=O)NC8=O)ccc7c6)CC5)CC4)C3)n2)c1F (racemic) [Compound 129, Rac-N-(3-{2-tert-butyl-5-[2-({7-[(1-{2-[(3R)-2,6-dioxopiperidin-3-yl]-1-oxo-1,2-dihydroisoquinolin-6-yl}piperidin-4-yl)methyl]-7-azaspiro[3.5]nonan-2-yl}amino)pyrimidin-4-yl]-1,3-thiazol-4-yl}-2-fluorophenyl)propane-1-sulfonamide] | 50 to 500 | 30 to 70 | > 500 | < 30 | > 500 | < 30 | > 500 | < 30 | – | – | – | – | – | – | – | – |

Other lines, results leading:

| DC50 [1, 5] [nM] | Dmax [1, 6] [%] | DC50 [2, 7] [nM] | Dmax [2, 8] [%] | DC50 [3, 9] [nM] | Dmax [3, 10] [%] | DC50 [4, 11] [nM] | Dmax [4, 12] [%] | DC50 ([1]; A375 (BRAF V600E, Class 1), DC50 at 50% degradation) [nM] | Dmax ([1]; A375 (BRAF V600E, Class 1), observed Dmax, % protein degraded relative to DMSO control) [%] | DC50 ([2]; BRAF G466V (Class 3), HCT-116 BRAF−/− cells, DC50 at 50% degradation) [nM] | Dmax ([2]; BRAF G466V (Class 3), HCT-116 BRAF−/− cells, observed Dmax relative to DMSO control) [%] | DC50 ([3]; BRAF G469A (Class 2), HCT-116 BRAF−/− cells, DC50 at 50% degradation) [nM] | Dmax ([3]; BRAF G469A (Class 2), HCT-116 BRAF−/− cells, observed Dmax relative to DMSO control) [%] | DC50 ([4]; BRAF D594G (Class 3), HCT-116 BRAF−/− cells, DC50 at 50% degradation) [nM] | Dmax ([4]; BRAF D594G (Class 3), HCT-116 BRAF−/− cells, observed Dmax relative to DMSO control) [%] | SMILES |
| --- | --- | --- | --- | --- | --- | --- | --- | --- | --- | --- | --- | --- | --- | --- | --- | --- |
| 10 to 50 | > 70 | 10 to 50 | 30 to 70 | > 500 | < 30 | > 500 | 30 to 70 | – | – | – | – | – | – | – | – | CCCS(=O)(=O)Nc1cccc(-c2cn(-c3ccc(C4CCN(CC5CCN(c6ccc(C7CCC(=O)NC7=O)cn6)CC5)CC4)cc3)nc2-c2ccncc2)c1F (racemic) [Compound 24, Rac-N-{3-[1-(4-{1-[(1-{5-[(3R)-2,6-dioxopiperidin-3-yl]pyridin-2-yl}piperidin-4-yl)methyl]piperidin-4-yl}phenyl)-3-(pyridin-4-yl)-1H-pyrazol-4-yl]-2-fluorophenyl}propane-1-sulfonamide] |
| < 10 | > 70 | > 500 | 30 to 70 | 10 to 50 | < 30 | > 500 | 30 to 70 | – | – | – | – | – | – | – | – | CCCS(=O)(=O)Nc1cccc(-c2nc(C(C)(C)C)sc2-c2ccnc(Nc3ccc(C4CCN(CC5CCN(c6ccc(C7CCC(=O)NC7=O)cn6)CC5)CC4)cc3)n2)c1F (racemic) [Compound 35, Rac-N-[3-(2-tert-butyl-5-{2-[(4-{1-[(1-{5-[(3R)-2,6-dioxopiperidin-3-yl]pyridin-2-yl}piperidin-4-yl)methyl]piperidin-4-yl}phenyl)amino]pyrimidin-4-yl}-1,3-thiazol-4-yl)-2-fluorophenyl]propane-1-sulfonamide] |
| – | – | – | – | – | – | – | – | < 10 | > 70 | < 10 | > 70 | < 10 | > 70 | < 10 | > 70 | C[C@@H]1CN(c2ccc(-n3cc(-c4cc(Cl)cc(NS(=O)(=O)N5CC[C@@H](F)C5)c4F)c(-c4ccncc4)n3)nc2)CCN1CC1CCN(c2ccc([C@H]3CCC(=O)NC3=O)cc2)CC1 [Compound 320, (3R)—N-[5-chloro-3-(1-{5-[(3R)-4-[(1-{4-[(3R)-2,6-dioxopiperidin-3-yl]phenyl}piperidin-4-yl)methyl]-3-methylpiperazin-1-yl]pyridin-2-yl}-3-(pyridin-4-yl)-1H-pyrazol-4-yl)-2-fluorophenyl]-3-fluoropyrrolidine-1-sulfonamide] |

From patent publication US20260317324A1, “BIFUNCTIONAL COMPOUNDS FOR DEGRADING BRAF VIA UBIQUITIN PROTEOSOME PATHWAY” (Nurix Therapeutics, Inc., priority 2023, published 2026)
